In article PMC7367369, “A small library of chalcones induce liver cancer cell death through Akt phosphorylation inhibition” (Scientific Reports, 2020):
Counter-ions that a name gives are not always drawn. Like-named read-outs stand apart in the source and are kept apart here.

Experiments:
Type in all cases: cell-based, human
HepG2 = assay: NCI-60 sulforhodamine B (SRB) cytotoxicity assay, HepG2; conditions: read-out: IC50 HepG2
Method: (§1) The bioactivities of the synthesized chalcones were assessed on human liver cancer cell lines and on DPSCs with NCI-SRB assay in vitro. DPSCs used to asses the bioactivity of chalcones on untransformed control cells with the potential of hepatic lineage. […] We also included 5-Fluorouracil which is used in clinics for gastrointestinal cancers and Sorafenib. All results were normalized to DMSO negative control measurements. The experiment was performed in triplicate.
(§2) Well differentiated human primary liver cancer cell lines Huh7, HepG2 and Hep3B, and poorly differentiated Mahlavu, FOCUS and SNU475 HCC cells were cultured in Dulbecco’s Modified Eagle’s Standard (DMEM) medium supplemented with 10% Fetal Bovine Serum (FBS), 100 units/mL penicillin and 100 µg/mL streptomycin (Gibco, Invitrogen, Carlsbad, CA, USA). 0.1 mM nonessential amino acids (NEAA) which are specific to HCC cell lines also added to culture media. Cells were cultured in a 5% CO2 incubator at 37^∘C
(§3) Primary liver cancer cells Huh7, HepG2, Hep3B, Mahlavu, FOCUS, Snu475 along with hepatic progenitor Dental pulp stem cells were seeded into 96-well plates (1,000–3,000 HCC cell/well and 10,000 cells DPSC/well ) for 24 h. The cells were then treated with increasing concentrations of the chalcones ( 2.5-40μM ). DMSO (AppliChem Biochemica, Darmstadt, Germany) was used as negative control. The growth has stopped at the end of 72 h by fixing cold with 10% (v/v) trichloroacetic acid (Merck, Schuchardt, Germany). Cells were then stained with 0.4% (m/v) of sulforhodamine (Sigma-Aldrich, St. Louis, USA) in 1% acetic acid solution. […] All experiments were done in triplicate.

Huh7 = assay: NCI-60 sulforhodamine B (SRB) cytotoxicity assay, Huh7; conditions: read-out: IC50 Huh7
Method: as §1, §2
Primary liver cancer cells Huh7, HepG2, Hep3B, Mahlavu, FOCUS, Snu475 along with hepatic progenitor Dental pulp stem cells were seeded into 96-well plates (1,000–3,000 HCC cell/well and 10,000 cells DPSC/well ) for 24 h. The cells were then treated with increasing concentrations of the chalcones ( 2.5-40μM ). DMSO (AppliChem Biochemica, Darmstadt, Germany) was used as negative control. The growth has stopped at the end of 72 h by fixing cold with 10% (v/v) trichloroacetic acid (Merck, Schuchardt, Germany). Cells were then stained with 0.4% (m/v) of sulforhodamine (Sigma-Aldrich, St. Louis, USA) in 1% acetic acid solution. The absorbency values were acquired at 515 nm. All experiments were done in triplicate.

Mahlavu = assay: NCI-60 sulforhodamine B (SRB) cytotoxicity assay, Mahlavu; conditions: 72 h, read-out: IC50 Mahlavu
Method: as §1, §2, §3

FOCUS = assay: NCI-60 sulforhodamine B (SRB) cytotoxicity assay, FOCUS; conditions: 72 h, read-out: IC50 FOCUS
Method: as §1, §2, §3

[1] = tested on: dental pulp stem cells (DPSC); assay: NCI-60 sulforhodamine B (SRB) cytotoxicity assay, dental pulp stem cells; conditions: 72 h, read-out: IC50 DPSC
Method: as §1
Dental pulp stem cells (DPSCs) were isolated from anonymised unidentified healthy intact wisdom tooth. DPSCs were isolated within few hours upon wisdom teeth surgery from patients above 18 years old. All were informed about the procedures, and their consents were obtained. Teeth were broken carefully in order to reach the dental pulp area. […] Then, the cells were seeded onto flasks in 10ml DMEM-F12 media (Lonza) supplemented with 1% penicillin/streptomycin solution (Hyclone) and 15% FBS (Fetal Bovine Serum,Hyclone, Logan, UT, USA) and cultured in a 5% CO2 incubator at 37^∘C .
as §3

Hep3B = assay: NCI-60 sulforhodamine B (SRB) cytotoxicity assay, Hep3B; conditions: 72 h, read-out: IC50 Hep3B
Method: as §1, §2, §3

SNU475 = assay: NCI-60 sulforhodamine B (SRB) cytotoxicity assay, SNU475; conditions: read-out: IC50 SNU475
Method: as §1, §2, §3

[2] = Homo sapiens, HepG2, SRB, 72 h, 2.5–40 μM, triplicate
[3] = Homo sapiens, Huh-7, SRB, 72 h, 2.5–40 μM, triplicate
[4] = Homo sapiens, Mahlavu, SRB, 2.5–40 μM, triplicate
[5] = Homo sapiens, SRB, 2.5–40 μM, triplicate
[6] = Homo sapiens, SRB, 2.5–40 μM, triplicate, untransformed control cells
[7] = Homo sapiens, Hep3B, SRB, 2.5–40 μM, triplicate
[8] = SRB, 72 h, 2.5–40 μM, triplicate
[9] = Homo sapiens, SNU-475, SRB, 72 h, 2.5–40 μM, triplicate

Row | SMILES | IC50 (HepG2; [2]) | IC50 (Huh7; [3]) | IC50 (Mahlavu; [4]) | IC50 (FOCUS; [5]) | IC50 [1, 6] | IC50 (Hep3B; [7]) | IC50 (SNU475; [9]) | also measured
1 | O=c1[nH]cc(F)c(=O)[nH]1 [5-Fluorouracil, reference compound] | 5 µM | 30.7 µM | 10 µM | 7.7 µM | 23.7 µM | 15.2 µM |  | 
2 | Oc1cc(O)c2c(c1)O[C@H](c1ccc(O)c(O)c1)[C@@H](O)C2 [Catechin hydrate, reference compound] |  |  |  |  |  |  |  | IC50 (HepG2; [8]): > 40 µM; IC50 (Huh7; [8]): > 40 µM; IC50 (Mahlavu; SRB, 2.5–40 μM, triplicate): > 40 µM; IC50 (FOCUS; SRB, 2.5–40 μM, triplicate): > 40 µM; IC50 ([1]; SRB, 2.5–40 μM, triplicate, untransformed control cells): > 40 µM; IC50 (Hep3B; SRB, 2.5–40 μM, triplicate): > 40 µM; IC50 (SNU475; [8]): > 40 µM
3 | COc1ccc(Cc2nccc3cc(OC)c(OC)cc23)cc1OC [Papaverine hydrochloride, reference compound] | 4.9 µM |  | > 40 µM | 1.7 µM | > 40 µM | 20.4 µM | 17.8 µM | IC50 (Huh7; Homo sapiens, Huh-7, 72 h): 8.5 µM
4 | O=c1c(O)c(-c2ccc(O)c(O)c2)oc2cc(O)cc(O)c12 [Quercetin, reference compound] | 8.4 µM | 12.5 µM | 11.3 µM | 17.9 µM | 21.2 µM | 21.8 µM | 11.6 µM | 
5 | CNC(=O)c1cc(Oc2ccc(NC(=O)Nc3ccc(Cl)c(C(F)(F)F)c3)cc2)ccn1 [Sorafenib, reference compound] | 5.6 µM |  | 7.9 µM |  | 7.1 µM |  | 7.5 µM | IC50 (Huh7; Homo sapiens, Huh-7, 72 h): 1.3 µM
6 | COc1ccc(C(=O)/C=C/c2ccccc2)cc1 [compound 3] | 7.6 µM | 6.4 µM | 9.4 µM | 20 µM | > 40 µM | 18 µM | 13.1 µM | 
7 | O=C(/C=C/c1cccc([N+](=O)[O-])c1)c1ccccc1 [compound 4] | > 40 µM | > 40 µM | 24.8 µM | > 40 µM | > 40 µM | > 40 µM | 23.8 µM | 
8 | COc1ccc(/C=C/C(=O)c2ccccc2)cc1 [compound 6] |  |  |  |  |  |  |  | IC50 (HepG2; Homo sapiens, HepG2, 72 h): 7.6 µM; IC50 (Huh7; Homo sapiens, Huh-7, 72 h): 6.4 µM; IC50 (Mahlavu; Homo sapiens, Mahlavu): 6.3 µM; IC50 (FOCUS; Homo sapiens): 6.5 µM; IC50 ([1]; Homo sapiens): > 40 µM; IC50 (Hep3B; Homo sapiens, Hep3B): 7.8 µM; IC50 (SNU475; Homo sapiens, SNU-475, 72 h): 10 µM
9 | COc1ccc(/C=C/C(=O)c2cccc([N+](=O)[O-])c2)cc1 [compound 7] | > 40 µM | > 40 µM | 31.1 µM | > 40 µM | > 40 µM | > 40 µM | > 40 µM | 
10 | COc1ccc(/C=C/C(=O)c2ccc(OC)cc2)cc1 [compound 8] | 26 µM | 17.9 µM | 17.3 µM | 21.5 µM | > 40 µM | 22.1 µM | 21.6 µM | 
11 | COc1ccc(C(=O)/C=C/c2ccc(Cl)cc2)cc1 [compound 10] | 13.9 µM | 11.9 µM | 14.6 µM | 15.9 µM | > 40 µM | 16.5 µM | 20 µM | 
